{"source": "patent US8197775B2", "about": "“Detection article having fluid control film” (priority 1999, dated 2012)", "system": "Escherichia coli ATCC 51813", "test": "Minimum inhibitory concentration (MIC) test using microchannels, MUG fluorescence read-out", "type": "cell-based", "details": "ATCC51813, VRB media with MUG 0.5 mg/ml, 16 hours at 37° C., control tubes and microchannels", "protocol": "Microchannel polyethylene films were heat embossed on a hydraulic press according to the procedure outlined in U.S. patent application Ser. No. 08/905,481. […] The channels were covered with ScotchPak #33 (3M Company) using an iron heated to 149 degrees C. (300 degrees F.), forming a series of capillary channels.\nA dilution series of tetracycline was prepared in VRB media (7.0 g Bacto peptone, 3.0 g yeast extract, 1.5 g bile salts per liter) containing the fluorescent indicator methylumbelliferyl glucuronide (MUG, 0.5 mg/ml). The following tetracycline concentrations were prepared: 40, 4, 0.4, 0.04, and 0.004 micrograms/ml. Approximately 1 ml of each solution was placed in a test tube. A suspension of Escherichia coli ATCC 51813 (100 microliters of approximately 10^7 bacteria/ml) was added to each tube. A syringe was used to transfer each solution into adjacent microchannels (1.6 microliters/channel). Both the control tubes and the microchannel device were incubated for 16 hours at 37° C. After incubation the samples were observed under ultraviolet radiation.", "data": [{"smiles": "CN(C)[C@@H]1C(O)=C(C(N)=O)C(=O)[C@@]2(O)C(O)=C3C(=O)c4c(O)cccc4[C@@](C)(O)[C@H]3C[C@@H]12", "note": "[tetracycline]", "values": [{"measurement": "MIC", "value": 4, "unit": "µg/mL"}]}]}
